Laboratory results taken from patent US9212168B2 (priority 2011, dated 2015).

Each compound was assayed on HCV genotype 1a replicon (assay: HCV genotype 1a replicon assay (NS3 protease activity readout)). Details: HCV genotype 1a replicon.
Format: cell-based, hepatitis C virus
Procedure: Assay 2: HCV Genotype 1a Replicon Assay
The HCV genotype 1a replicon cell line was obtained from Apath LLC (APC89; Huh7.5 cell background). This subgenomic replicon contains the N-terminus of the HCV core protein fused to the neomycin-resistance selectable marker. The EMCV IRES lies downstream and drives expression of the non-structural proteins NS3-NS5B. Compound potencies were determined using the NS3-specific protease activity in lysates as a measurement of compound inhibition of replicon levels.
Cells were grown at 37° C. in a 5% CO2 humidified incubator in DMEM (Invitrogen) with 10% FBS (HyClone), 1×NEAA (Invitrogen), 1× Pen-Strep (Invitrogen), and 850 μg/mL G418 (Invitrogen). On day 1 of the assay, cells were plated at 15,000 cells/well in black 96-well tissue culture plates (Costar) in 200 μL media lacking G418. Four hours later, once the cells had adhered, the media was removed and replaced with media (no G418) containing dose-responses of test compounds. Compounds were initially diluted in DMSO and then diluted another 200× in media to bring the final DMSO concentration down to 0.5%. The cells were incubated with test compounds for 48 or 72 hours. At the end of the incubation period, media and compound were removed from the plates.
To determine the NS3-specific protease activity in lysates, the cells were lysed at room temperature in 50 μL/well of 50 mM Hepes pH 7.5, 150 mM NaCl, 15% Glycerol, 0.15% Triton X-100, 10 mM DTT for 20 minutes with shaking. 50 μL of an NS3/4a protease-specific FRET substrate (Anaspec RET S1 Cat#22991) was then added to the wells at a final concentration of 15 μM. The plates were incubated at 37° C. for 20 minutes, which corresponds to a timepoint at which the protease activity is still in the linear phase. Protease activity was determined by measuring fluorescence (Excitation: 340 nm; Emission: 509 nm).
To analyze the data, the fluorescence was plotted vs. the compound concentration, and EC50 values were determined from a 4-parameter robust fit model using GraphPad Prism software.

| SMILES | Genotype 1a |
| --- | --- |
| COC(=O)N[C@H](C(=O)N1C[C@@H](OC)C[C@H]1c1nc(-c2ccc(-c3cc(F)c(NC(=O)c4ccc(N5CCN(C(=O)[C@H]6CC6(C)C)C[C@H]5C)nc4)cc3OC(F)(F)F)cc2)c[nH]1)C(C)C [Example 27-4] | D (D represents pEC50>10 (EC50<0.1 nM)) |
| COC(=O)N[C@H](C(=O)N1C[C@@H](C)C[C@H]1c1nc(-c2ccc(-c3cc(Cl)c(NC(=O)c4ccc(N5CCN(C(=O)C6CC67CC7)C[C@H]5C)nc4)cc3C(F)(F)F)cc2)c[nH]1)C(C)C (stereo partly shown) [Example 1-89] | D (D represents pEC50>10 (EC50<0.1 nM)) |
| COC(=O)N[C@H](C(=O)N1C[C@@H](C)C[C@H]1c1nc(-c2ccc(-c3cc(F)c(NC(=O)c4ccc(N5CCN(C(=O)c6c[nH]cn6)C[C@H]5C)nc4)cc3OC(F)(F)F)cc2)c[nH]1)C(C)C [Example 1-25] | D (D represents pEC50>10 (EC50<0.1 nM)) |
| COC(=O)N[C@H](C(=O)N1C[C@@H](C)C[C@H]1c1nc(-c2ccc(-c3ccc(C(=O)Nc4ccc(N5CCN(C(=O)C(C)(C)C)C[C@H]5C)nc4)cc3OC(F)(F)F)cc2)c[nH]1)C(C)C [Example 4-36] | C (C represents pEC50 between and 9 and about 10, (EC50 between 1 nM and 0.1 nM)) |
| COC(=O)N[C@H](C(=O)N1C[C@@H](C)C[C@H]1c1nc(-c2ccc(-c3cc(Cl)c(NC(=O)c4ccc(N5CCN(C(=O)C6(C(F)(F)F)CC6)C[C@H]5C)nc4)cc3OC(F)(F)F)cc2)c[nH]1)C(C)C [Example 1-99] | D (D represents pEC50>10 (EC50<0.1 nM)) |
| COC(=O)N[C@H](C(=O)N1C[C@@H](C)C[C@H]1c1nc(-c2ccc(-c3cc(Cl)c(NC(=O)c4ccc(N5CCN(C(=O)C6CC6)C[C@H]5C)nc4)cc3OC(F)(F)F)cc2)c[nH]1)C(C)C [Example 1-42] | D (D represents pEC50>10 (EC50<0.1 nM)) |
| COC(=O)N[C@H](C(=O)N1C[C@@H](OC)C[C@H]1c1nc(-c2ccc(-c3cc(Cl)c(NC(=O)c4ccc(N5CCN(C(=O)C(C)(C)C(=O)O)C[C@H]5C)nc4)cc3OC(F)(F)F)cc2)c[nH]1)C1CCOCC1 [Example 28-23] | C (C represents pEC50 between and 9 and about 10, (EC50 between 1 nM and 0.1 nM)) |
| COC(=O)N[C@H](C(=O)N1C[C@@H](C)C[C@H]1c1nc(-c2ccc(-c3ccc(C(=O)Nc4ccc(N5CCN(C(=O)C6CC6(Cl)Cl)C[C@H]5C)nc4)cc3OC(F)(F)F)cc2)c[nH]1)C(C)C (stereo partly shown) [Example 4-32] | C (C represents pEC50 between and 9 and about 10, (EC50 between 1 nM and 0.1 nM)) |
| COC(=O)NC(C(=O)N1CC(C)CC1c1nc(-c2ccc(-c3ccc(NC(=O)c4ccc(N5CCN(C(=O)C(C)(C)C)CC5C)nc4)cc3OC(F)(F)F)cc2)c[nH]1)C(C)(C)O (stereo not shown) [Example 13-15] | D (D represents pEC50>10 (EC50<0.1 nM)) |
| COC(=O)N[C@H](C(=O)N1C[C@@H](C)C[C@H]1c1nc(-c2ccc(-c3cc(F)c(C(=O)Nc4ccc(N5CCN(C(=O)[C@H]6CC6(C)C)C[C@H]5C)nc4)cc3OC(F)(F)F)cc2)c[nH]1)C(C)C [Example 4-43] | C (C represents pEC50 between and 9 and about 10, (EC50 between 1 nM and 0.1 nM)) |
| COC(=O)N[C@H](C(=O)N1C[C@@H](C)C[C@H]1c1nc(-c2ccc(-c3cc(Cl)c(NC(=O)c4ccc(N5CCN(C(=O)C6CC67CC7)C[C@H]5C)nc4)cc3OC(F)(F)F)cc2)c[nH]1)C(C)C (stereo partly shown) [Example 1-87] | D (D represents pEC50>10 (EC50<0.1 nM)) |
| COC(=O)N[C@H](C(=O)N1C[C@@H](N(C)C)C[C@H]1c1nc(-c2ccc(-c3cc(Cl)c(NC(=O)c4ccc(N5CCN(C(=O)[C@H]6CC6(C)C)C[C@H]5C)nc4)cc3OC(F)(F)F)cc2)c[nH]1)C(C)C [Example 2-6] | D (D represents pEC50>10 (EC50<0.1 nM)) |
| COC(=O)N[C@H](C(=O)N1C[C@@H](C)C[C@H]1c1nc(-c2ccc(-c3ccc(C(=O)Nc4ccc(N5C[C@H](C)N(C(=O)[C@@H](C)NC(=O)C6CC6)C[C@H]5C)nc4)cc3OC(F)(F)F)cc2)c[nH]1)C(C)C [Example 4-40] | D (D represents pEC50>10 (EC50<0.1 nM)) |
| COC(=O)N[C@H](C(=O)N1C[C@@H](C)C[C@H]1c1nc(-c2ccc(-c3ccc(C(=O)Nc4ccc(N5CCN(C(=O)C6CC6)C[C@H]5C)nc4)cc3OC(F)(F)F)cc2)c(Cl)[nH]1)C(C)C [Example 4-31] | C (C represents pEC50 between and 9 and about 10, (EC50 between 1 nM and 0.1 nM)) |
| COC(=O)NC(C(=O)N1C[C@@H](C)C[C@H]1c1nc(-c2ccc(-c3cc(Cl)c(NC(=O)c4ccc(N5CCN(C(=O)C(C)(C)CO)C[C@H]5C)nc4)cc3C(F)(F)F)cc2)c[nH]1)C1CCS(=O)(=O)CC1 (single isomer, unassigned) [Example 19-1] | D (D represents pEC50>10 (EC50<0.1 nM)) |

Same assay, conditions: Hepatitis C virus, read-out: Genotype 1a, HCV genotype 1a replicon

| SMILES | EC50 |
| --- | --- |
| COC(=O)N[C@H](C(=O)N1C[C@@H](C)C[C@H]1c1nc(-c2ccc(-c3cc(Cl)c(NC(=O)c4ccc(N5CCN(C(=O)C6CCC6(C)C)C[C@H]5C)nc4)cc3OC(F)(F)F)cc2)c[nH]1)C(C)C (stereo partly shown) [Example 12-21] | < 0.1 nM |
| COC(=O)N[C@H](C(=O)N1C[C@@H](C)C[C@H]1c1nc(-c2ccc(-c3cc(Cl)c(NC(=O)c4ccc(N5CCN(C(=O)C6CCOCC6)C[C@H]5C)nc4)cc3OC(F)(F)F)cc2)c[nH]1)C(C)C [Example 12-27] | 0.1 to 1 nM |
| COC(=O)N[C@H](C(=O)N1C[C@@H](N)C[C@H]1c1nc(-c2ccc(-c3ccc(C(=O)Nc4ccc(N5CCN(C(=O)C6CC6(C)C)C[C@H]5C)nc4)cc3)cc2)c[nH]1)C(C)C (stereo partly shown) [Example 6-4] | 10 to 1000 nM |
| COC(=O)N[C@H](C(=O)N1C[C@@H](C)C[C@H]1c1nc(-c2ccc(-c3cc(Cl)c(NC(=O)c4ccc(N5CCN(C(=O)NN6CCOCC6)C[C@H]5C)nc4)cc3OC(F)(F)F)cc2)c[nH]1)C(C)C [Example 12-18] | < 0.1 nM |
| COC(=O)N[C@@H](C(=O)N1C[C@@H](C)C[C@H]1c1nc(-c2ccc(-c3cc(Cl)c(NC(=O)c4ccc(N5CCN(C(=O)C(C)(C)C)C[C@H]5C)nc4)cc3OC(F)(F)F)cc2)c[nH]1)C1CCCCC1 [Example 13-40] | 10 to 1000 nM |
| COC(=O)N[C@H](C(=O)N1[C@H](c2nc(-c3ccc(-c4ccc(C(=O)Nc5ccc(N6CCN(C(=O)[C@]7(C)C[C@@H](O)CN7C(=O)OC(C)(C)C)C[C@H]6C)nc5)cc4OC(F)(F)F)cc3)c[nH]2)C[C@@H]2CCCC[C@@H]21)C(C)C [Example 6-16] | 1 to 10 nM |
| [2H]C([2H])([2H])C1(C([2H])([2H])[2H])C[C@@H]1C(=O)N1CCN(c2ccc(NC(=O)c3ccc(-c4ccc(-c5c[nH]c([C@@H]6C[C@H]([S+](C)[O-])CN6C(=O)[C@@H](NC(=O)OC)C(C)C)n5)cc4)c(OC(F)(F)F)c3)cn2)[C@H](C)C1 (stereo partly shown) [Example 6-20] | 1 to 10 nM |
| COC(=O)N[C@@H](CSC)C(=O)N1C[C@@H](C)C[C@H]1c1nc(-c2ccc(-c3cc(Cl)c(NC(=O)c4ccc(N5CCN(C(=O)C(C)(C)C)C[C@H]5C)nc4)cc3OC(F)(F)F)cc2)c[nH]1 [Example 13-7] | < 0.1 nM |
| CNC(=O)N1CCN(c2ccc(C(=O)Nc3cc(C(F)(F)F)c(-c4ccc(-c5c[nH]c([C@@H]6CC(C)(C)CN6C(=O)[C@@H](NC(=O)OC)C(C)C)n5)cc4)cc3F)cn2)[C@H](C)C1 [Example 3-4] | 0.1 to 1 nM |
| CCN(C)C(C)C(=O)N1CCN(c2ccc(C(=O)Nc3cc(OC(F)(F)F)c(-c4ccc(-c5c[nH]c([C@@H]6C[C@H](C)CN6C(=O)[C@@H](NC(=O)OC)C(C)C)n5)cc4)cc3Cl)cn2)[C@H](C)C1 (stereo partly shown) [Example 12-22] | 0.1 to 1 nM |
| COC[C@H]1C[C@@H](c2nc(-c3ccc(-c4cc(Cl)c(NC(=O)c5ccc(N6CCN(C(=O)C(C)(C)C)C[C@H]6C)nc5)cc4OC(F)(F)F)cc3)c[nH]2)N(C(=O)[C@@H](NC(=O)OC)C2CCOCC2)C1 [Example 5-15] | < 0.1 nM |
| COC(=O)N[C@H](C(=O)N1C[C@@H](C)C[C@H]1c1nc(-c2ccc(-c3cc(Cl)c(NC(=O)c4ccc(N5CCN(C(=O)NN6CCS(=O)(=O)CC6)C[C@H]5C)nc4)cc3OC(F)(F)F)cc2)c[nH]1)C(C)C [Example 12-19] | < 0.1 nM |
| COC(=O)N[C@H](C(=O)N1C[C@@H](C)C[C@H]1c1nc(-c2ccc(-c3cc(Cl)c(NC(=O)c4ccc(N5CCN(C(=O)C(C)(C)CO)C[C@H]5C)nc4)cc3OC(F)(F)F)cc2)c(CO)[nH]1)C(C)C [Example 5-13] | < 0.1 nM |
| COC(=O)N[C@H](C(=O)N1C[C@@H](C)C[C@H]1c1nc(-c2ccc(-c3cc(Cl)c(NC(=O)c4ccc(N5CCN(C(=O)C6CNC6)C[C@H]5C)nc4)cc3OC(F)(F)F)cc2)c[nH]1)C(C)C [Example 12-51] | 0.1 to 1 nM |
| COC(=O)N[C@H](C(=O)N1CC(C)(C)C[C@H]1c1nc(-c2ccc(-c3ccc(C(=O)Nc4ccc(N5CCN(C(=O)C6CC6(C)C)C[C@H]5C)nc4)cc3OC(F)(F)F)cc2)c[nH]1)C(C)C (stereo partly shown) [Example 6-8] | 0.1 to 1 nM |
| COC(=O)N[C@H](C(=O)N1[C@@H]2C[C@@H]2C[C@H]1c1nc(-c2ccc(-c3cc(Cl)c(NC(=O)c4ccc(N5CCN(C(=O)C6CC6)C[C@H]5C)nc4)cc3C(F)(F)F)cc2)c[nH]1)C(C)C [Example 8-3] | 0.1 to 1 nM |
